Counter-ions that a name gives are not always drawn. Like-named read-outs stand apart in the source and are kept apart here.
How the values were obtained:
[1] = system: HMVEC cells stimulated with VEGF 165; experiment: VEGF driven HMVEC proliferation screen; format: cell-based
Procedure: (§1) HMVEC cells were plated on collagen-coated plates at 2500 cells/well for 24 hours. Various concentrations of test compounds were then added to duplicate plates. […] Anti-FGF antibody (final concentration of 5 μg/mL) was added to four control wells as a standard inhibitor. At the same time the compounds were added, a T-zero plate was generated (Alamar blue was added to a plate and read after three hours). The plates with the compounds were incubated for one hour at 37° C., 5% carbon dioxide. At this point, b-FGF was added (final concentration of 2.5 ng/mL). Tween-20 (10 μL) was added to four additional control wells to represent total death and the plates were returned to the carbon dioxide incubator for 6 days.
The assay was run identically using VEGF in place of b-FGF. The final concentration of VEGF 165, in this mode, was 10 ng/mL. The control inhibitor was anti-VEGF antibody (final concentration of […]). All other conditions were the same.

in vitro = conditions: human, primary human dermal fibroblasts, D. Fibroblast LC50, 6 days, Alamar blue
Procedure: (§2) In parallel with the VEGF and FGF screens, a normal cell toxicity assay was run. Primary Human Dermal Fibroblasts (Clonetics) were plated at 5000 cells/well. After 24 hours various concentrations of test compounds, were added in duplicate plates and 10% Tween-20 was added to four control wells to represent total death. At the same time a T-zero plate was generated. The plates were returned to the carbon dioxide incubator and on day 6 Alamar blue was added and the plates read after 3 hours.
(§3) Using a T-zero plate allows the observation of compounds that cause the cells to become static as well as inhibit growth.

[2] = system: HMVEC cells stimulated with b-FGF; experiment: b-FGF driven HMVEC proliferation screen; format: cell-based
Procedure: as §1

[3] = system: Primary Human Dermal Fibroblasts; experiment: in vitro; conditions: read-out: D. Fibroblast LC50, 6 days, Alamar blue
Procedure: as §2, §3

[4] = Homo sapiens, HMVEC, 144 h, VEGF 165 10 ng/mL, 6 days, Alamar blue, read-out: VEGF LC50
[5] = Homo sapiens, HMVEC, 144 h, b-FGF 2.5 ng/mL, 6 days, Alamar blue, read-out: b-FGF LC50
[6] = VEGF 165 10 ng/mL, 6 days, Alamar blue, read-out: VEGF LC50
[7] = b-FGF 2.5 ng/mL, 6 days, Alamar blue, read-out: b-FGF LC50

Cc1cc(NC(=O)c2ccccn2)c2ncccc2c1Br [Compound 16, pyridine-2-carboxylic acid (5-bromo-6-methyl-quinolin-8-yl)-amide]
CC50 [1, 4]: 380 nM
CC50 at 6 days (in vitro): > 10000 nM
CC50 [2, 5]: 380 nM

O=C(Nc1cccc2cccnc12)c1cc(Cl)ccn1 [Compound 22, 4-chloropyridine-2-carboxylic acid quinolin-8-ylamide]
CC50 [1, 4]: 100 nM
CC50 at 6 days (in vitro): > 10000 nM
CC50 [2, 5]: 130 nM

O=C(Nc1cccc2cccnc12)c1cc(Sc2ccccc2)ccn1 [Compound 31, 4-phenylsulfanylpyridine-2-carboxylic acid quinolin-8-ylamide]
CC50 [1, 4]: 170 nM
CC50 at 6 days (in vitro): > 10000 nM
CC50 [2, 5]: 150 nM

O=C(Nc1cccc2cccnc12)c1cc(Oc2ccccc2)ccn1 [Compound 32, 4-phenoxypyridine-2-carboxylic acid quinolin-8-ylamide]
CC50 [1, 4]: 1100 nM
CC50 at 6 days (in vitro): > 10000 nM
CC50 [2, 5]: 1800 nM

O=C(Nc1cccc2cccnc12)c1ncccc1OCc1ccccc1 [Compound 47, 3-benzyloxypyridine-2-carboxylic acid quinolin-8-ylamide]
CC50 [1, 4]: 280 nM
CC50 at 6 days (in vitro): > 10000 nM
CC50 [2, 5]: 400 nM

Cc1cccnc1C(=O)Nc1ccc(N2CCOCC2)c2cccnc12 [Compound 50]
CC50 [1, 4]: 110 nM
CC50 at 6 days (in vitro): > 10000 nM
CC50 [2, 5]: 74 nM

O=C(Nc1ccc(N2CCOCC2)c2cccnc12)c1cc(Cl)ccn1 [Compound 51]
CC50 [1, 4]: 220 nM
CC50 at 6 days (in vitro): > 10000 nM
CC50 [2, 5]: 230 nM

COc1cc(NC(=O)c2cc(Cl)ccn2)c2ncccc2c1 [Compound 52]
CC50 [1, 4]: 93 nM
CC50 at 6 days (in vitro): > 10000 nM
CC50 [2, 5]: 85 nM

COc1cc(NC(=O)c2cc(N3CCOCC3)ccn2)c2ncccc2c1 [Compound 53]
CC50 [1, 4]: 30 nM
CC50 at 6 days (in vitro): > 10000 nM
CC50 [2, 5]: 28 nM

CN(C)CC(=O)Nc1cccc2cccnc12 [Compound 55, 2-dimethylamino-N-quinolin-8-yl-acetamide]
CC50 [1, 4]: 630 nM
CC50 at 6 days (in vitro): > 10000 nM
CC50 [2, 5]: 590 nM

O=C(CN1CCCC1)Nc1cccc2cccnc12 [Compound 56]
CC50 [1, 4]: 1300 nM
CC50 at 6 days (in vitro): > 10000 nM
CC50 [2, 5]: 1400 nM

O=C(Nc1cccc2cccnc12)[C@@H]1CCCN1 [Compound 57, (S)-pyrrolidine-2-carboxylic acid quinolin-8-ylamide]
CC50 [1, 4]: 1300 nM
CC50 at 6 days (in vitro): > 10000 nM
CC50 [2, 5]: 1200 nM

CN(C)[C@@H](Cc1ccccc1)C(=O)Nc1cccc2cccnc12 [Compound 59]
CC50 [1, 4]: 1200 nM
CC50 at 6 days (in vitro): > 10000 nM
CC50 [2, 5]: 1100 nM

C[C@@H](C(=O)Nc1cccc2cccnc12)N(C)C [Compound 60]
CC50 [1, 4]: 730 nM
CC50 at 6 days (in vitro): > 10000 nM
CC50 [2, 5]: 520 nM

O=C(Nc1cccc2cccnc12)[C@@H]1CCCN1CC1CC1 [Compound 61]
CC50 [1, 4]: 1500 nM
CC50 at 6 days (in vitro): > 10000 nM
CC50 [2, 5]: 1500 nM

CCCN1CCC[C@H]1C(=O)Nc1cccc2cccnc12 [Compound 62]
CC50 [1, 4]: 1300 nM
CC50 at 6 days (in vitro): > 10000 nM
CC50 [2, 5]: 1200 nM

CC(C)CN1CCC[C@H]1C(=O)Nc1cccc2cccnc12 [Compound 63]
CC50 [1, 4]: 5500 nM
CC50 at 6 days (in vitro): > 10000 nM
CC50 [2, 5]: 4400 nM

CC(C)N1CCC[C@H]1C(=O)Nc1cccc2cccnc12 [Compound 64]
CC50 [1, 4]: 6400 nM
CC50 at 6 days (in vitro): > 10000 nM
CC50 [2, 5]: 5200 nM

CN1CCC[C@@H]1C(=O)Nc1cccc2cccnc12 [Compound 65]
CC50 [1, 4]: 230 nM
CC50 at 6 days (in vitro): > 10000 nM
CC50 [2, 5]: 290 nM

COc1cc(NC(=O)[C@@H]2CCCN2C)c2ncccc2c1 [Compound 66]
CC50 [1, 4]: 240 nM
CC50 at 6 days (in vitro): > 10000 nM
CC50 [2, 5]: 240 nM

Cc1cc(NC(=O)[C@@H]2CCCN2C)c2ncccc2c1 [Compound 67]
CC50 [1, 4]: 230 nM
CC50 at 6 days (in vitro): > 10000 nM
CC50 [2, 5]: 350 nM

CN1CCC[C@H]1C(=O)Nc1ccc(N2CCOCC2)c2cccnc12 [Compound 68]
CC50 [1, 4]: 430 nM
CC50 at 6 days (in vitro): > 10000 nM
CC50 [2, 5]: 820 nM

CN1CCCC[C@H]1C(=O)Nc1cccc2cccnc12 [Compound 69]
CC50 [1, 4]: 3100 nM
CC50 at 6 days (in vitro): > 10000 nM
CC50 [2, 5]: 2600 nM

CN1CCCC[C@@H]1C(=O)Nc1cccc2cccnc12 [Compound 70]
CC50 [1, 4]: 3900 nM
CC50 at 6 days (in vitro): > 10000 nM
CC50 [2, 5]: 2800 nM

Cc1cc(NS(=O)(=O)c2ccccn2)c2ncccc2c1C [Compound 75, pyridine-2-sulfonic acid (5,6-dimethyl-quinolin-8-yl)-amide]
CC50 [1, 4]: 190 nM
CC50 at 6 days (in vitro): > 10000 nM
CC50 [2, 5]: 160 nM

O=C(Nc1cccc2ccnnc12)c1ccccn1 [Compound 76]
CC50 [1, 4]: 3500 nM
CC50 at 6 days (in vitro): > 10000 nM
CC50 [2, 5]: 3300 nM

O=S(=O)(Nc1cccc2nccnc12)c1ccccn1 [Compound 78]
CC50 [1, 4]: 2400 nM
CC50 at 6 days (in vitro): > 10000 nM
CC50 [2, 5]: 4200 nM

CCN(C)c1c(NC(=O)c2ccccn2)ccc(Cl)c1Cl [Compound 92]
CC50 [1]: 8200 nM
CC50 [3]: > 10000 nM
CC50 [2]: 7900 nM

O=C(Nc1cccc2cccnc12)c1ccccn1 [Compound 93, pyridine-2-carboxylic acid quinolin-8-ylamide hydrochloride salt]
CC50 [1, 4]: 72 nM
CC50 at 6 days (in vitro): > 10000 nM
CC50 [2, 5]: 71 nM

O=C(Nc1cccc2nccnc12)c1ccccn1 [Compound 94]
CC50 [1, 4]: 280 nM
CC50 at 6 days (in vitro): > 10000 nM
CC50 [2, 5]: 290 nM

Cc1cc(NC(=O)c2ccccn2)c2ncccc2c1C [Compound 95]
CC50 [1, 4]: 150 nM
CC50 at 6 days (in vitro): > 10000 nM
CC50 [2, 5]: 170 nM

Cc1ccc(NC(=O)c2ccccn2)c2ncccc12 [Compound 96]
CC50 [1, 4]: 140 nM
CC50 at 6 days (in vitro): > 10000 nM
CC50 [2, 5]: 100 nM

O=C(Nc1cc(Cl)c(Cl)c2cccnc12)c1ccccn1 [Compound 97]
CC50 [1, 4]: 250 nM
CC50 at 6 days (in vitro): > 10000 nM
CC50 [2, 5]: 250 nM

CN1CCN(c2ccnc(C(=O)Nc3cccc4cccnc34)c2)CC1 [Compound 100, 4-(4-methylpiperazin-1-yl)pyridine-2-carboxylic acid quinolin-8-ylamide trifluoroacetate salt]
CC50 [1, 4]: 18 nM
CC50 ([3]; trifluoroacetate salt): 2900 nM
CC50 [2, 5]: 19 nM

CN1CCN(c2ccnc(C(=O)Nc3cccc4cccnc34)c2)CC1 [Compound 101]
CC50 [1, 6]: 15 nM
CC50 [3]: > 10000 nM
CC50 [2, 7]: 14 nM

CN1CCCN(c2ccnc(C(=O)Nc3cccc4cccnc34)c2)CC1 [Compound 102]
CC50 [1, 4]: 24 nM
CC50 at 6 days (in vitro): > 10000 nM
CC50 [2, 5]: 31 nM

O=C(Nc1cccc2cccnc12)c1cc(N2CCC(N3CCCC3)CC2)ccn1 [Compound 103]
CC50 [1, 4]: 33 nM
CC50 at 6 days (in vitro): 4300 nM
CC50 [2, 5]: 38 nM

COc1cc(NC(=O)c2cc(N3CCN(C)CC3)ccn2)c2ncccc2c1 [Compound 105]
CC50 [1, 6]: 91 nM
CC50 at 6 days (in vitro): 9600 nM
CC50 [2, 7]: 120 nM

CCN(C)c1ccccc1NC(=O)c1ccccn1 [Compound 106]
CC50 [1, 4]: 1500 nM
CC50 at 6 days (in vitro): > 10000 nM
CC50 [2, 5]: 1200 nM

CN1CCC[C@H]1C(=O)Nc1cccc2cccnc12 [Compound 107]
CC50 [1, 6]: 460 nM
CC50 at 6 days (in vitro): > 10000 nM
CC50 [2, 7]: 410 nM

CN1CCC[C@H]1C(=O)Nc1cccc2cccnc12 [Compound 108, (S)-1-methyl-pyrrolidine-2-carboxylic acid quinolin-8-ylamide L-tartrate salt]
CC50 ([1]; VEGF 165 10 ng/mL, 6 days, Alamar blue, L-tartrate salt, read-out: VEGF LC50): 290 nM
CC50 [3]: > 10000 nM
CC50 ([2]; b-FGF 2.5 ng/mL, 6 days, Alamar blue, L-tartrate salt, read-out: b-FGF LC50): 220 nM

O=S(=O)(Nc1cc(Cl)c(Cl)c2cccnc12)c1ccccn1 [Compound 109]
CC50 [1, 4]: 450 nM
CC50 at 6 days (in vitro): > 10000 nM
CC50 [2, 5]: 340 nM

CN1CCN(c2ccc(NS(=O)(=O)c3ccccn3)c3ncccc23)CC1 [Compound 110]
CC50 [1, 4]: 1500 nM
CC50 at 6 days (in vitro): > 10000 nM
CC50 [2, 5]: 1300 nM
